Reference: US20070025939A1, “cosmetic compositions containing hydroquinone and various sunscreen agents” (L'Oreal S.A., priority 2005, published 2007)

Columns and labels:
Format in all cases: physicochemical
[1] = Discoloration of compositions associated with oxidation of hydroquinone (general statement); details: compositions containing hydroquinone
[2] = Discoloration of hydroquinone solutions with stabilizer in various solvents after storage; details: hydroquinone solutions in various solvents (ethanol absolute, 40-B, 40-2, 3A), glass vials, four weeks at 45° C., FIGS. 2A-D
Description: FIGS. 2A-D are photographs of containers of various compositions, each comprising 0.1% benzophenone-4 in 100 ml of various solvents, after storage for four weeks at 45° C. In another set of experiments, solutions containing […] in various solvents (as shown below) were prepared, and then stored in glass vials for four weeks at 45° C.

[3] = Discoloration of 1% hydroquinone solutions in SDA 40-2 ethanol with 0.1% stabilizer after storage; details: hydroquinone 1% w/w in 200-proof ethanol SDA grade 40-2, 0.1% w/w stabilizer, glass vials, 4 weeks at 45° C., FIG. 1
Description: FIG. 1 is a photograph of containers of various compositions, each comprising 1% hydroquinone, 0.1% of various stabilizers, in a vehicle of SDA grade 40-2 ethanol. Solutions of hydroquinone (1% w/w), in 200-proof ethanol (SDA grade 40-2, which includes brucine sulfate as a denaturant) with 0.1% w/w of various compounds, namely BHT, benzophenone-3, ascorbic acid, Tinogard HS, Tinogard TT, Tinogard Q, benzophenone-4, Tinogard TT DD and ascorbyl glucoside were prepared, and then stored in glass vials for 4 weeks at 45° C. The results of the experiments are illustrated in FIG. 1.

discoloration of compositions associated with oxidation of hydroquinone [1]	discoloration of the solutions [2]	discoloration of the solution [3]	Compound
inhibit or reduce discoloration	substantially no discoloration	–	CC1(C)C2CCC1(CS(=O)(=O)O)C(=O)/C2=C/c1ccc(/C=C2/C(=O)C3(CS(=O)(=O)O)CCC2C3(C)C)cc1 [Mexoryl SX, tetraphthalylidene dicamphor sulfonic acid]
inhibit or reduce discoloration	substantially no discoloration	substantially no discoloration	COc1cc(O)c(C(=O)c2ccccc2)cc1S(=O)(=O)O [benzophenone-4, 5-Benzoyl-4-Hydroxy-2-Methoxybenzene Sulfonic Acid]
